Key:
Assay type in all cases: cell-based
[1] = tested on: MDA-MB468 (TNBC cell line); experiment: MTT cell viability assay, MDA-MB468; details: Homo sapiens, MDA-MB-468, 72 h, read-out: IC50 ± SD, MDA-MB468
Protocol: The following cancer and non-cancer cell lines were used in the initial cytotoxicity screening of the TPH104 compounds: triple negative breast cancer (TNBC): MDA-MB468, MDA-MB 231, and BT-20; non-TNBC: MCF-7 and ZR-75-1; ovarian: Ov2008; prostate: DU145; colon: HCT-116, S1, and LOVO; lung: H460; normal kidney: HEK-293; normal breast: HMEC; and normal colon: CRL-1459. All cells were cultured in Dulbecco's modified Eagle medium (DMEM), supplemented with 10% fetal bovine serum (FBS), and 1% penicillin/streptomycin (P/S). Cells were allowed to grow as adherent monolayers in T25 flasks in a humidified incubator with 5% CO2 at 37° C. for a period of 24 h, unless otherwise specified for certain experiments.
The MTT assay was used to determine the cytotoxicity of all of the compounds. Briefly, in a 96-well flat-bottom cell culture plate, the cells were seeded at a density between 3-5×10^3 cells/well (180 μl in each well) and incubated for 24 h (a hemocytometer was used for cell counting). The next day, the cells were incubated with different concentrations of the nine compounds (0, 0.1, 0.3, 1, 3, 10, 30, and 100 μM) for 72 h. After 72 h, 20 μl of 5 mg/ml of 3-(4,5-dimethylthiazol-2-yl)-2,5-diphenyltetrazolium bromide (MTT) was added to the plate and incubated with the cells for 3 h at 37° C. In this experiment, the living cells will reduce the soluble MTT dye to non-soluble purple formazan crystals. Following incubation, the media containing MTT removed via suction and 100 μL of 100% dimethyl sulfoxide (DMSO) was added to dissolve the formazan crystals. Subsequently, the plate was shaken for 2 minutes and the absorbance was measured at a wavelength of 570 nm using a SpectraMax iD3 Multi-Mode Microplate Reader (Molecular Devices, Sunnyvale, CA). The IC50 values of each compound were calculated and used to determine the selectivity ratio (IC50 in normal cells/IC50 in cancer cells) of each compound as previously described. Based on the results obtained from these experiments, the compound TPH104, which had the lowest IC50 value, was selected for further experiments.

BT-20 cells = experiment: incuCyte live cell imaging of proliferation; details: 0.1, 1, 3, and 10 μM
Description: FIG. 4: Representative images of the anti-proliferative effect of TPH104 at different concentrations and different time points in BT-20 cells. The time lapse images were taken using an incuCyte live cell imaging instrument (10×). **p<0.01, ***p<0.001, ****p<0.0001 compared to the control.

MDA-MB231 cells = experiment: Scratch/wound healing assay
Protocol: MDA-MB231 cells were seeded in a 6 well-plate (10-20,000 cells/well) and incubated at 37° C. until they reached 60-80% confluence and formed a complete monolayer, as previously reported. Subsequently, a wound was created by scratching the monolayer with a 10 μl sterile pipette tip. The floating cells were washed away with sterile PBS, making the wound area clear and completely empty. Immediately following monolayer scratching, TPH104 (0.5, 1, 2, 5 or 10 μM) or vehicle were added to the cell culture media (2 ml total in each well) and incubated at 37° C. for 36 h. The wound closure was monitored over time by taking pictures after 0 h, 12 h, 24 h, and 36 h of incubation using an EVOS-FLC microscope. Image J software NIH, Bethesda, MD, USA) was used to determine the areas of the wound at different time points as previously reported.

[2] = tested on: RIP, p-RIP, MLKL, caspase 8 in MDA-MB468 cells; experiment: Western blot, necroptotic proteins, MDA-MB468
Protocol: The TNBC cells were seeded in a culture flask and incubated for 24 h. The cells were then incubated with different concentrations of the lead compounds and re-incubated for an additional 12 or 24 h. […] The bicinchoninic acid (BCA) was used to determine protein concentration in the cell extracts (G-BIOSCIENCES, St. Louis, MO, USA). […] The membrane was blocked using 5% milk in Tris-buffered Tween 20 saline for 30 minutes. The membrane was then incubated overnight with primary antibodies against Bak, Bax, Bcl-2, caspase9, caspase 3, caspase 7, PARP, cytochrome c, N-cadherin, E-cadherin, c-Myc, dishevelled segment polarity protein 3 (DVL3), dishevelled segment polarity protein 2 (DVL2), Vimentin, mitogen-activated protein kinase kinase (MAPKK also known as MEK1/2), β-catenin, low-density lipoprotein receptor-related protein 6 (LRP6), receptor-interacting protein kinase (RIP), phosphorylated RIP (p-RIP), mixed lineage kinase domain like pseudokinase(MLKL), Caspase 8, light chain 3 (LC3), lysosomal-associated membrane protein 1 (LAMP1), unc-51 like autophagy activating kinase 1 (ULK1), ras associated protein 7 (Rab7), ras associated protein 5 (Rab5), Beclin 1, mechanistic target of rapamycin (mTOR), tumor necrosis factor alpha (TNF-α), tumor necrosis factor receptor 1 (TNFR1), tumor necrosis factor receptor 2 (TNFR2), Fas-associated protein with death domain (FADD), Fas ligand (Fas), TNF-related apoptosis-inducing ligand (TRAIL), death receptor 5 (DR5), Tumor necrosis factor receptor type 1-associated DEATH domain (TRADD), receptor-interacting protein kinase 3 (RIP3), β-actin or GAPDH in 1:1000 dilution in 5% milk or 5% BSA at 4° C. Horseradish peroxidase-labeled (HRP) anti-rabbit or anti-mouse secondary antibodies (1:5,000 dilution) were added and incubated the next day for an additional 1 h. A ChemiDoc™ MP System imaging system from Bio-Rad (Hercules, CA, USA) was used for blots reading. Blots were used to obtain the protein bands, followed by quantification of the bands using image J software (NIH, Bethesda, MD, USA). All of the data were expressed as the ratio of β-actin or GAPDH.

[3] = tested on: ABCG2 transporter in H460/MX20, S1M180 and HEK293/R2 cells; experiment: Western blot, ABCG2 transporter expression; details: concentration dependent
Description: FIG. 25: TPH104 reverses multidrug resistance by downregulating the expression of ABCG2 transporter in a concentration dependent fashion in drug resistant small cell lung cancer cells (H460/MX20), colon cancer cells (S1M180) and ABCG2-transfected cells (HEK293/R2). The bar graph represents the quantified values of the ratio of ABCG2/β-actin. The data represent mean±SEM of three independent western blots. *p<0.05, **p<0.01 compared to control.

[4] = tested on: S1M180 and H460-MX20 ABCG2-overexpressing cells vs parental S1 and H460; experiment: Collateral sensitivity in ABCG2-overexpressing versus parental cells; details: 0.3, 3, and 30 μM
Description: The data is shown as means±SEM of three independent experiments.

COc1ccc(O)c(/C=N/Nc2ncnc3scc(-c4ccc(C)cc4)c23)c1 [TPH104]
IC50 [1]: 0.25 µM | BT-20 cell proliferation (BT-20 cells): concentration-dependent and time-dependent decrease | death of cells (MDA-MB231 cells; 10 μM, after 12 h of incubation): 70% | mobility and migration (MDA-MB231 cells; 0.5, 1, 2, 5, and 10 μM): significantly decreased | wound closure (MDA-MB231 cells; 1, 2, 5, and 10 μM): significantly reduced | expression of caspase 8 ([2]; 0.5, 1, 2, and 5 μM): significantly decreased | expression levels of MLKL ([2]; 1, 2, and 5 μM): significantly increased | expression of p-RIP ([2]; 1, 2, and 5 μM): significantly increased | expression of RIP1 ([2]; 1, 2, or 5 μM for 12 h): significantly increased | expression of ABCG2 transporter [3]: downregulated | ABCG2 transporter mediated multidrug resistance, collateral sensitivity [4]: collateral sensitivity

— patent publication US12390467B2, “Necroptosis inducers or autophagy inhibitors or a combination thereof” (The University of Toledo, priority 2018, dated 2025)
